Each structure is given as a SMILES string. pEC50: −log10 of the molar value. Where two headings read alike, the source gives them in different places. Where only a bound is given, the exact number is not on record here.

One data set has as its target T1, FLNA/PEBP2β (Homo sapiens, UniProt P21333).
T1 construct: endogenous in cells; host or cells: hMSCs (primary human mesenchymal stem cells)
The data set is described as follows: immunoprecipitation and Western blotting of FLNA/PEBP2β interaction in hMSCs. It counts as cell-based. Particulars: 12 hr treatment. Here is the method: hMSCs were treated with […] for 12 hr and lysed as above. 2 μg of anti-PEBP23 antibody was added to the cell lysate and incubated overnight at 4° C. prior to addition of agarose beads bearing immobilized protein A/G. After incubation of the lysate with the protein A/G beads for 1 hour, the beads were collected by centrifugation at 2,000 rpm and washed 3 times with lysis buffer. 30 μL of 2×SDS sample buffer was added to the beads and boiled for 5 min.

In the next data set the test system is human chondrocytes. The experiment in a line: proliferation of human chondrocytes. The class given is cell-based.
Data set [1] has as its system primary bovine chondrocytes. The data set is described as follows: inhibition of cytokine-induced nitric oxide release (Greiss reaction). The class given is cell-based. The procedure, abridged: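 Primary bovine articular chondrocytes or bovine cartilage explants were exposed to TNFα plus oncostatin M, with compound present. Chondrocyte supernatant NO was measured by Greiss reagent at 540 nm. Explants were given 20 ng/ml TNFα and 10 ng/ml oncostatin M for 72 h with compound throughout, and GAG release was measured.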

For the next data set, the system named is HEK 293 cells. The data set is described as follows: toxicity in HEK 293 cells. The class given is cell-based. The following applies: 100 μM.
Data set [2] concerns hMSCs. The experiment in a line: toxicity in hMSCs. It counts as cell-based, human. The following applies: 100 μM.
Another data set relates to chondrocytes. The experiment in a line: toxicity in chondrocytes. The class given is cell-based. Particulars: 100 μM.
Data set [3] has as its system hMSCs. The data set is described as follows: type II collagen expression in hMSC cultures (18 day assay). It counts as cell-based, human.
For a further data set, the system named is synovial fibroblasts. The experiment in a line: toxicity in synovial fibroblasts. The class given is cell-based. The following applies: 100 μM.
In data set [4] the test system is human mesenchymal stem cells (hMSCs). The experiment in a line: chondrogenic nodule formation by hMSCs (high throughput screen). It counts as cell-based. A digest of the protocol:
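Primary hMSCs (10^4/well) in serum-free DMEM exposed to compounds at 5 μM for 4 days. Chondrogenic nodules stained with Nile red (binds collagens) and counted by high-content imaging with 488 laser excitation. In 96-well follow-up, 50,000 cells/well treated 4 days, formalin-fixed, stained with 1 μg/ml Rhodamine B.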

The test system of another data set is hMSC. The data set is described as follows: type II collagen and aggrecan immunohistochemistry in hMSC pellet culture. The class given is cell-based, human. Particulars: 21 days. The text has this: In the screen, hMSCs were used as a surrogate to future targeting of the resident MSCs with the cartilage joint. It was in that setting upon which we identified PRO1. In a joint injury, the primary cell type a therapeutic would have contact with is the chondrocyte. Although cartilage or chondrocyte-targeted screening has not lead to the development of a successful drug modifying osteoarthritis drug (DMOAD) to date, it is believed that a stem cell-based therapeutic would protect and even repair the existing chondrocytes. Therefore, protection of the articular chondrocytes and cartilage from a mature bovine knee was assessed. PRO1 and its analogues were incubated with primary bovine chondrocytes or cartilage explants cultures grown in the presence of TNFα and oncostatin M to mimic the cytokine-induced damage that can occur during OA. In the presence of the cytokine cocktail, in vitro cultured primary chondrocytes released 4-5 fold more nitric oxide (NO) than the untreated chondrocytes (50 μM vs 10 μM) as measured by the Greiss reaction. […]
Primary hMSCs were plated (10,000/well) in 384-well plates and cultured for 18 days. […] 20 μl of the supernatant was mixed with 20 μl of the Greiss reagent and quantitated at 540 nm as described by the Promega kit instructions. […]

T1 sequence (P21333 2-2647 limits assumed): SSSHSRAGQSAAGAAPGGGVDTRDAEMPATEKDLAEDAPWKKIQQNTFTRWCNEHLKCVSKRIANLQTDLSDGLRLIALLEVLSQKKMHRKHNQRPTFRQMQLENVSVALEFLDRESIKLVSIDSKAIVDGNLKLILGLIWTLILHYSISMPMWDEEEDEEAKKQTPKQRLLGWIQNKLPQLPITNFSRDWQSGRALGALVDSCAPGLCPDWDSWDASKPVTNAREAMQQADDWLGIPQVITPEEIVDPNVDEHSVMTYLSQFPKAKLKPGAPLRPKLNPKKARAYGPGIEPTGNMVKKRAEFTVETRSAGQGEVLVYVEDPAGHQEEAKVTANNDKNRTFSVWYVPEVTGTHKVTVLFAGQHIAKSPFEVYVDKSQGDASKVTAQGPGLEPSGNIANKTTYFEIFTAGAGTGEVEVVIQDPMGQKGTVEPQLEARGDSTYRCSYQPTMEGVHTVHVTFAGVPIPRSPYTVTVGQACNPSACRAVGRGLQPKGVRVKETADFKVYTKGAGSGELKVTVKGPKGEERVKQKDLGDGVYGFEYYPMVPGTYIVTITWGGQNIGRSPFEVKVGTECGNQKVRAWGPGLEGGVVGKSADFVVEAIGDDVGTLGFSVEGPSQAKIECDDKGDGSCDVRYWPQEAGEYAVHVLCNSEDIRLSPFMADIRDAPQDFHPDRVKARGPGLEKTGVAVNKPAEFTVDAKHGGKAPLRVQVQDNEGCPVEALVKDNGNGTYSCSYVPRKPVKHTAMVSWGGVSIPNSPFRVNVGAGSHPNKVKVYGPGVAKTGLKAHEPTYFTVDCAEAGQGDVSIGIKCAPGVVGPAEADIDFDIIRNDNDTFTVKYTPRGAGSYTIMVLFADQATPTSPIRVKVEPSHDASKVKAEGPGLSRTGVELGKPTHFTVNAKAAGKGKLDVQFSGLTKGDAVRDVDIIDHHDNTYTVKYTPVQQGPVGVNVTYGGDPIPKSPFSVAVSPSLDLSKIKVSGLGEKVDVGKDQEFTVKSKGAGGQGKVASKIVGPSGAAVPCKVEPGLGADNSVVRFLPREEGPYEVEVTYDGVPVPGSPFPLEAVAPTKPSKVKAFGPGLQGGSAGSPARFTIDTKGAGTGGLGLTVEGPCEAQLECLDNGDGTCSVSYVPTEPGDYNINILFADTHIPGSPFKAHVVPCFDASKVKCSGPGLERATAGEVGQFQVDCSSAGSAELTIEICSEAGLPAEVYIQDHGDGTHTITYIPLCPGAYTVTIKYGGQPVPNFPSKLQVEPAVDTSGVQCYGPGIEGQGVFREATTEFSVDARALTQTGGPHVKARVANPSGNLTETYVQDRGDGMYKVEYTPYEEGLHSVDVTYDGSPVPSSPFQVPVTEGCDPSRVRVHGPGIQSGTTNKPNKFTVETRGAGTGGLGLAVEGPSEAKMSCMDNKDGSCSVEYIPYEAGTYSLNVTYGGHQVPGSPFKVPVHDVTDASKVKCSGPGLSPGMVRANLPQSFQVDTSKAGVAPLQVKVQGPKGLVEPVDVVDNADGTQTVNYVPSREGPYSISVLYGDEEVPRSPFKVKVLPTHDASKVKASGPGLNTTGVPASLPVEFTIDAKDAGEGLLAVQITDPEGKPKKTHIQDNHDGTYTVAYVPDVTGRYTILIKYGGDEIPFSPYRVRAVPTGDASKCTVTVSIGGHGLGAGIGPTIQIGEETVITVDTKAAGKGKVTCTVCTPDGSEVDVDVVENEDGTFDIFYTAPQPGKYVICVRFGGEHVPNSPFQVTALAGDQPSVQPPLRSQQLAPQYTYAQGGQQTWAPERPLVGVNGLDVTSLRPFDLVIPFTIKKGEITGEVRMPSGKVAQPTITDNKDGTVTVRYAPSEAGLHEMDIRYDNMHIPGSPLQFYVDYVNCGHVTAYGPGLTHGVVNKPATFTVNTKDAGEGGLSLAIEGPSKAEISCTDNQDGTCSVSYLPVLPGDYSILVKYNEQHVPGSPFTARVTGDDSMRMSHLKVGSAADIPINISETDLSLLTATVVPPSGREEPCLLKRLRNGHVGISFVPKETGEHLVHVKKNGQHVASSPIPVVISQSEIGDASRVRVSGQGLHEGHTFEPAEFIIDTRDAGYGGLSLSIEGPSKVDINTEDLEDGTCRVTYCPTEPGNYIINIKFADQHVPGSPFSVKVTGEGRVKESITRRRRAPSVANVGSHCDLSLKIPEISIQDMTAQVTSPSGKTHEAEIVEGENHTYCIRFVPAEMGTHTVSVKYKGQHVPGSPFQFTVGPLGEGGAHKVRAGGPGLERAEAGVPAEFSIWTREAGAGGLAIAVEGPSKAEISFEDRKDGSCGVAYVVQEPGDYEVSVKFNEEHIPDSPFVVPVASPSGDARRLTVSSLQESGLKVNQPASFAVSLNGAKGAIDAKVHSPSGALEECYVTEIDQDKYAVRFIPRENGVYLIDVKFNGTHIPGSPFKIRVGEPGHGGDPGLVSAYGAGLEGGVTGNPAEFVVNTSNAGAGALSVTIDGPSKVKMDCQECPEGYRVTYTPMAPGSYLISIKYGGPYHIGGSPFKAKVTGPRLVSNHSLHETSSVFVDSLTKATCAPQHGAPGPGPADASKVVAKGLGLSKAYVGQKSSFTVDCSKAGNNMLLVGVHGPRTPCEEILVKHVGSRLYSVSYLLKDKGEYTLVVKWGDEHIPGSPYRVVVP

On to `O=C(O)c1ccccc1C(=O)Nc1ccc(-c2ccccc2)cc1` [AKT], for which the Tmax in the data set “in vivo” (0.05 mg/kg) came out at 1 h. The bioavailability in the data set “in vivo” (0.05 mg/kg) is ~22%. The compound further returned an AUC(0-inf) in “in vivo” (0.05 mg/kg, AUC0-inf) of 0.342 µM·h. Besides, the Cmax in “in vivo” (0.05 mg/kg, Cmax) was ~100 nM. Further, the concentration at 1 h in the data set “in vivo” (0.05 mg/kg, Plasma Conc.) was 134 nM; in “in vivo” (Plasma Conc.), 102 nM. In the data set “in vivo” (0.05 mg/kg, T1/2), the half-life is ~2 h. This compound showed a concentration at 3 h in the data set “in vivo” (Plasma Conc.) of 33.6 nM. Moreover, in the data set “in vivo” (Plasma Conc.), the concentration at 7 h worked out at 11.8 nM. For the same compound, the “protein interactions between FLNA and PEBP2β” value on FLNA/PEBP2β is “Inhibits the Protein Interactions”. For the same compound, in the data set with human chondrocytes, the proliferative advantage is on record as < 1.5 fold. Moreover, the “block of cytokine-induced release of NO” value in data set [1] (TNFα and oncostatin M cocktail, up to) is recorded as “up to 70%”. In addition, in [1] (second value of the cell (after the slash), TNFα and oncostatin M, 48 hours, read-out: NO INHIBTION μM IC50), the IC50 turned out to be 0.45 µM. The toxicity result in the data set on HEK 293 cells, in the data set on hMSCs [2], in the data set with chondrocytes and with synovial fibroblasts was “No toxicity” each time. For the same compound, the EC50 in the data set with hMSCs [3] was 0.08 µM; in [4] (first value of the cell (before the slash), read-out: CHONDROGENIC μM EC50), 0.225 µM. Further, the “induction of chondrogenic differentiation of hMSCs” value in the data set on hMSCs [3] (compared with known inducers TGFβ3, BMP7 or BMP2, FIG. 2B) is “more potent and efficient”. Also, the cartilage nodule formation result in [4] (100 nM, 4 days, Rhodamine B stain) is “Rapid Phenotypic Cartilage Nodule Formation”. For the same compound, the pEC50 in data set [4] (Homo sapiens, Mesenchymal stem cells, 96 h, primary screen, Nile red stained nodules, 4 days, read-out: EC50) was 7.00. Also, in the data set with hMSC, the “type II collagen and aggrecan expression” value was “increase type II collagen and aggrecan expression”.
